The nature of the series: gradient 5% acetonitrile 3 min, to 50% in 2 min, to 85% in 15 min, held 3 min, 100 µL/min. The note with it: column: Zorbax Extend-C18 2.1 x 50 mm; eluents: water / acetonitrile, 0.1% formic acid. In short, it runs like this: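 The mobile phases were water and acetonitrile, each with 0.1% formic acid, pumped at 100 μL/min through a Zorbax Extend-C18 column (2.1 × 50 mm, 1.8 μm). Pure standards were injected as mixtures of ~100 molecules and detected by a quadrupole time-of-flight mass spectrometer in positive and negative ionization mode. Retention time came from computationally picked adduct peaks, each inspected by hand.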
`CSc1cccc(NC(=O)c2cn(C)nc2S(=O)(=O)N2CCSCC2)c1` had an RP-LC retention time of 973 s.

For the molecule `Cc1cc(C)cc(Nc2c(-c3cccc(O)c3)nc3ncccn23)c1`, the RP-LC retention time worked out at 719 s. `COCCn1nc2n(c1=O)CCC1(CC2)CCN(C(=O)C2CCOC2)CC1` (centres undefined) registered an RP-LC retention time of 587 s. With `COCCn1c(C2CCN(C(=O)Cc3ccc(Cl)cc3)C2)nc2ccncc21` (centres undefined) the figure was 570 s; with `CCOC(=O)C1=C(C)NC(C)=C(C(=O)OCC)C1c1c(F)c(F)c(F)c(F)c1F`, 1240 s; with `CCn1c(=O)c2cc(C(=O)Nc3cccc(C(F)(F)F)c3)nn2c2ccccc21`, 1080 s.

As to `CCCC(C)C(=O)N1CCCN(C2=NS(=O)(=O)C(c3ccc(CC)cc3)=C2C)CC1` (centres undefined), the RP-LC retention time was determined as 935 s. With `COc1ccc(-c2nn3c(N4CCN(c5ccccn5)CC4)cc(C)nc3c2C)cc1` the figure was 615 s; with `Cc1cccc(Cn2c(=O)n(CCNC(=O)CC(C)C)c3ncccc32)c1`, 800 s; with `O=C(Cn1cnc2nc(N3CCCC(C(=O)NC4CC4)C3)sc2c1=O)Nc1ccccc1F` (centres undefined), 668 s. With `CC1(C(=O)NCc2ccc(Cl)cc2)CN(S(C)(=O)=O)CC(=O)N1c1ccc(F)cc1` (centres undefined) the figure was 800 s; with `CSc1cccc(NC(=O)C2CCCN(c3ccc(=O)n(-c4cccc(Cl)c4)n3)C2)c1` (centres undefined), 1010 s. As for `CNC(=O)C1CN(S(=O)(=O)c2ccccc2)CC12CCCCC2` (centres undefined), the RP-LC retention time came to 776 s. With `Cc1cccc(-c2nc(Cn3nnc(C(=O)NCc4ccc(F)c(Cl)c4)c3C)c(C)o2)c1` the figure was 1180 s. With `COCc1noc([C@@H]2CC(F)(F)CN2C(=O)c2ocnc2C)n1` the figure was 679 s; with `Cc1ccc(-c2nc(-c3ccnc(N4CCOCC4)c3)no2)cc1F`, 1100 s. With `CCNc1cc(N2CCC(CCC(=O)NCc3cccc(F)c3)CC2)ncn1` the figure was 665 s. In turn, `COC(=O)c1c(NCCc2ccc(Cl)cc2)c2cc(F)ccc2[nH]c1=O` showed an RP-LC retention time of 857 s.

With `Cn1cc(CCNS(=O)(=O)c2ccccc2Br)c2cccnc21`, the RP-LC retention time stood at 741 s.

`COc1cnc(SC)nc1Nc1ccc(C#N)cc1` returned an RP-LC retention time of 853 s. `O=C(NC1CCCC1)N1CC(Oc2ccccc2-c2nc(-c3ccccc3)no2)C1` returned an RP-LC retention time of 1010 s. With `CCOC(=O)C1CCc2sc(NC(=O)c3cc(-c4cccs4)[nH]n3)nc21` (centres undefined) the figure was 835 s. `COc1cccc(COC(=O)C2=CN(C)S(=O)(=O)N=C2C)c1` yielded an RP-LC retention time of 921 s. With `O=C1Nc2ccccc2C(=O)N2CCCC12` (centres undefined) the figure was 590 s.

With `CCOc1ccc2nc(NCc3ccco3)sc2c1`, the RP-LC retention time worked out at 728 s.

Regarding `Cc1noc([C@@H]2CN(C(=O)c3ccc(Cn4ccnc4)o3)C[C@H]2C(N)=O)n1`, the RP-LC retention time is 538 s. In the case of `O=C(Nc1nc(-c2ccc3ccccc3c2)cs1)c1ccc(Cl)cc1Cl`, the RP-LC retention time was 1220 s. For `CN(Cc1ccco1)C(=O)c1ccc(-n2cc(CNC(=O)C3CCC3)cn2)cc1`, the RP-LC retention time was 672 s. With `CCN1C(=O)CCc2cc(NC(=O)c3ccc(C)s3)ccc21` the figure was 800 s; with `Cc1ccc(-c2noc(-c3nc(-c4cccnc4)no3)n2)cc1`, 1090 s. As for `CCC(C)NC(=O)N1CCCN(C2=NS(=O)(=O)C(c3ccccc3)=C2C)CC1` (centres undefined), the figure is 748 s; as for `COC1CN(c2cccc(F)c2)C12CCN(Cc1ccccn1)CC2` (centres undefined), 699 s; as for `CCS(=O)(=O)c1ccc(C(=O)Nc2nc3c(s2)CC(C)CC3)cc1` (centres undefined), 867 s.

`COCCn1cc2c3c(cccc31)CN(C(=O)Nc1ccccc1C(F)(F)F)CC2`: the RP-LC retention time amounted to 981 s. As for `CCc1c(C2CCN(C(=O)c3cccc(C#N)c3)CC2)noc1N`, the RP-LC retention time is 690 s.

`Cc1ccc(-c2noc(Cn3cnc4c(oc5ccccc54)c3=O)n2)cc1` registered an RP-LC retention time of 999 s. With `O=C(C1CCCN(c2cnc3nccnc3c2)C1)N1CCC(N2CCCCC2)CC1` (centres undefined) the figure was 557 s.

With `CC(C)c1csc(-c2csc(S(=O)(=O)NCc3ccccc3)c2)n1`, the RP-LC retention time is 1040 s. `COC(=O)c1cn(CC(=O)N2CCc3ccccc32)c2ccccc12` had an RP-LC retention time of 974 s. With `CCN1CCCc2cc(C(=O)NC3CCCCC3)sc21` the figure was 1010 s; with `O=C(NCc1cccs1)C1CCN(S(=O)(=O)c2cc(C(=O)N3CCCCCC3)cs2)CC1`, 861 s; with `O=C(CCn1nnc2cc(-c3noc(-c4cccc(F)c4)n3)ccc21)N1CCCC1`, 928 s. With `O=C(CCn1nnc2cc(-c3noc(Cc4cccc(F)c4)n3)ccc21)N1CCCC1` the figure was 855 s. As for `O=C(c1ccccc1Br)N1CCN(c2cc(-c3ccc(F)cc3)[nH]n2)CC1`, the figure is 824 s. In the case of `CCOC(=O)c1sc(NC(=O)CN2CCN(c3ccccn3)CC2)nc1C`, the RP-LC retention time came out at 605 s. On to `Cc1cc(C)c(NC(=O)Cn2nc(N3CCC(C)CC3)c3ccccc3c2=O)c(C)c1`, for which the RP-LC retention time came to 1300 s. With `O=C(Nc1ccc2c(c1)CCCN2S(=O)(=O)c1ccccc1)c1c(F)cccc1Cl` the figure was 1080 s; with `Cc1nc(-c2ccccc2)sc1C(=O)N1CCC(C(C)C(=O)N2CCOCC2)CC1` (centres undefined), 728 s; with `O=S(=O)(c1ccc2c(c1)CCC2)N1CCCC1c1nc(-c2cccc(Cl)c2)no1` (centres undefined), 1310 s.

In turn, `O=C(Cc1ccc(NC(=O)c2ccsc2)cc1)NCc1cccs1` showed an RP-LC retention time of 725 s.

`CC1(C)C(=O)N(CC(=O)Nc2ccccc2F)c2ccccc21` gave an RP-LC retention time of 869 s. With `O=C(CN1c2ccc(F)cc2-c2ccccc2S1(=O)=O)Nc1ccccc1` the figure was 936 s. With `O=C(Cc1nnc(-c2ccc3ncccc3c2)o1)N1CCN(c2ccccc2F)CC1` the figure was 753 s; with `Cc1cccc(-n2cc(C(=O)OCC(=O)OC(C)C)c3ccccc3c2=O)c1`, 1130 s; with `Nc1nc(N2CCN(C3CCCCC3)CC2)ncc1C(=O)NCc1ccccc1F`, 629 s. With `CS(=O)(=O)Nc1ccc(C2(C(=O)NCc3cc(F)cc(F)c3)CCCCC2)cc1` the figure was 916 s; with `O=C(Nc1ccc2c(c1)OCO2)N(Cc1ccsc1)CC(F)(F)F`, 858 s. As for `CN1C2CCCC1CC(NC(=O)c1nn(C)c3ccccc13)C2` (centres undefined), the RP-LC retention time was 640 s. The molecule `O=C(Nc1nc2c(s1)CCCC2C(=O)N1CCc2ccccc21)c1ccc2c(c1)OCO2` (centres undefined) came in with an RP-LC retention time of 949 s. As for `CC(c1ccccc1)c1nc(-c2ccc3c(c2)nnn3CCN2CCOCC2)no1` (centres undefined), the figure is 714 s. `COc1cc(Cl)c(CC2C(=O)Nc3ccccc32)cc1OC` (centres undefined) had an RP-LC retention time of 900 s. As for `Cn1c(=O)sc2cc(S(=O)(=O)N3CCC(C(=O)Nc4cccc(Cl)c4)CC3)ccc21`, the figure is 953 s; as for `Cc1ccc(CNC(=O)C(C)n2nc(C)c3nn(-c4ccccc4)c(C)c3c2=O)o1` (centres undefined), 807 s; as for `CC1(C)C(=O)N(c2ccc(C#N)c(C(F)(F)F)c2)C(=O)N1CCCCO`, 888 s.

For the molecule `O=C(NCc1cccc(Cl)c1)C1CCCN(c2cnc3nccnc3c2)C1` (centres undefined), the RP-LC retention time is 749 s. With `CCCc1ccc(S(=O)(=O)N2CCC(OCc3noc(C4CCCO4)n3)CC2)cc1` (centres undefined) the figure was 987 s; with `COc1ccc(-n2nc3c(N4CCCC(C(=O)NCCC5=CCCCC5)C4)nnc(C)c3c2C)cc1` (centres undefined), 814 s.

`Cc1ccc(CNC(=O)CCC2CCN(c3cc(NC4CC4)ncn3)CC2)cc1`: the RP-LC retention time was determined as 714 s.

For `COc1ccc(C(=O)NCCc2sc(-c3cccnc3)nc2C)cc1`, the RP-LC retention time was found to be 619 s. With `O=C(CN1C(=O)c2cccnc2Sc2ccccc21)NCCc1c[nH]c2ccc(Cl)cc12` the figure was 817 s; with `COc1cccc(CNC(=O)C2(C)CCN(C(=O)NCC3CCCO3)CC2)c1` (centres undefined), 668 s. In the case of `COCCCNC(=O)c1c(OCC(C)C)cc(=O)n2c1CCCCC2`, the RP-LC retention time worked out at 638 s. With `CNC(=O)C1CCCN(c2nc3ncn(CC(=O)Nc4cccc(C(C)C)c4)c(=O)c3s2)C1` (centres undefined) the figure was 711 s. With `O=S(=O)(Nc1ccc2c(c1)OCCO2)c1ccc2nncn2c1` the figure was 660 s. `CN(C)CCNC(=O)C1CCN(C(=O)c2cc3ccsc3n2Cc2ccc(Cl)cc2)CC1` gave an RP-LC retention time of 685 s.

Molecule `Cc1nc(C)c(C(=O)N(Cc2ccccn2)c2nc3c(Cl)cccc3s2)s1` gave an RP-LC retention time of 957 s. With `CCOc1ccc(NC(=O)Cn2c(C)nc3cc4c(cc32)OCCO4)cc1` the figure was 658 s; with `CC(C)NC(=O)N1CC(Oc2cccc(-c3nc(-c4ccccc4)no3)c2)C1`, 1010 s; with `Cc1ccc(NC(=O)N2CCN(c3ccc(=O)n(-c4ccccc4)n3)CC2)cc1Cl`, 708 s.

These data come from the METLIN SMRT retention time set (Domingo-Almenara et al. 2019).
